Results published in BindingDB's records for doi:10.1021/bi9005896 (Albert Einstein College of Medicine, 2009).

Target: T1, Purine nucleoside phosphorylase (Homo sapiens, UniProt P00491)
T1 sequence (P00491 whole entry): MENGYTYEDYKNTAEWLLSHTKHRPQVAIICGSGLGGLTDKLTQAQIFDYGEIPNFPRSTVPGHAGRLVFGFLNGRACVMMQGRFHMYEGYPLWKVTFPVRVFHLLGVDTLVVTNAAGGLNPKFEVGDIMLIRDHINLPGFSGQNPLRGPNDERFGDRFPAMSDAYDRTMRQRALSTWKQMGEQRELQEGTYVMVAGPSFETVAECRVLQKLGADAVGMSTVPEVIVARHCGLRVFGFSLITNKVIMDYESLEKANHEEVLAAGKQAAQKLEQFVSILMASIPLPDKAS
Assay: Inhibtion Assay
Text: Inhibition assay using human PNP.

Q: How did the Kd turn out when O=c1[nH]cnc2c(CN3CCC(O)C3)c[nH]c12 (stereo unspecified) [Immucillins, 11] was run?
A: The Kd was 0.383 nM.
